Source: patent publication US20060281806A1, “Treatment and inhibition of disease conditions using flexible heteroarotinoids” (priority 2005, published 2006)

Tests used:
[1] = test system: SiHa human cervical cell line; experiment: In vitro cytotoxicity (SRB growth inhibition) assay, SiHa; assay type: cell-based; parameters: dose or concentration left out as unconfirmed; settings: 72 h
Method: The SHetA2, SHetA3, SHetA4, SHet50 and 9-cis-RA compounds were evaluated in 4 cervical carcinoma cell lines. The SiHa, CC-1 and C33a human cervical cell lines were maintained in Minimal Essential Media (MEM) containing Earle's salts and L-glutamine supplemented with nonessential amino acids, 1% sodium pyruvate, 10% fetal bovine serum (FBS) and antibiotic/antimycotic. The HT-3 cervical carcinoma cell line was cultured in McCoy's 5a medium supplemented with 10% FBS and antibiotic/antimycotic. Cells were inoculated into 96 well microtiter plates at densities of 1000 cells/well and incubated for 24 h prior to addition of drugs. Drugs were dissolved in dimethyl sulfoxide (DMSO) and diluted in complete medium, prior to addition to triplicate culture wells to achieve final concentrations of […]. Following drug addition, the plates were incubated for 72 h. The assay was terminated by the addition of cold TCA and the cells were stained with 0.4% sulforhodamine B (SRB) in 1% acetic acid. Bound stain was subsequently solubilized with 10 mM trizma base, and the absorbance was read on an automated plate reader at a wavelength of 560 nm. Growth inhibition was determined by dividing the average Optical Density (OD) of the triplicated treated cultures by the average OD of the triplicate control cultures treated with DMSO solvent only. This ratio was converted into a percentage by multiplying by 100. The potency (concentration required to induce half of the maximal activity—GI50) were derived from dose-response graphs generated with results from 3 to 5 individual experiments using GraphPad Software.

ovarian cancer cells = experiment: Microarray analysis of gene expression in SHetA2-treated ovarian cancer cells; assay type: cell-based, human
Method: Microarray analysis was conducted to determine specific disease causing genes which were expressed at higher (>1 fold) or lower (<1 fold) levels than normal in ovarian cancer cells treated with SHetA2 (see Table 6).

[2] = test system: Thymidine Phosphorylase (TP); experiment: Real time rt-PCR and Western blot validation, TP; assay type: cell-based; settings: 1 μM (rt-PCR, OVCAR-3) and 10 μM (Western blot, A2780)
Method: (§1) FIG. 13. Real Time rt-PCR validation of SHetA2 inhibition of TP and TSP-1 mRNA Expression. OVCAR-3 cultures were treated with 1 μM SHetA2 for the indicated period of time prior to harvesting the cells and isolating RNA. cDNA was prepared and used in real time rt-PCR reactions. Real time rt-PCR was performed on CDNA from cultures various treatment times.
(§2) FIG. 14. Western blot validation of SHetA2 inhibition of TP and TSP4 protein expression. A2780 ovarian cancer cells were treated with 10 μM SHetA2 for the indicated amounts of time. Equal amounts of whole cell protein extracts were evaluated by Western blot.

Thrombospondin 4 (TSP4) = experiment: Real time rt-PCR and Western blot validation, TSP-4; assay type: cell-based; settings: 1 μM (rt-PCR, OVCAR-3) and 10 μM (Western blot, A2780)
Method: as §1, §2

NF-κB = NF-κB luciferase reporter assay in A2780 cultures; assay type: cell-based; settings: 10 μM SHetA2, inhibition increased over 4 hours
Method: FIG. 15. SHetA2 Inhibition of NF-κB. A2780 cultures were transfected with the NF-κB reporter and treated with 10 μM SHetA2 for the indicated times. Cell lysates were prepared and evaluated for luciferase activity which was normalized for protein concentration.
Because both TP and TSP4 have DNA binding sites for the NFκB transcription factor in their promoter, the ability of SHetA2 to inhibit activity of NF-κB in ovarian cancer cultures was tested using a luciferase reporter plasmid driven by NF-κB sites in the promoter. […] Inhibition increased over the 4 hour evaluation time (FIG. 15).

[3] = RAID pharmacokinetic studies (35); cited from earlier work

For `CC1(C)CC(C)(C)c2cc(NC(=S)Nc3ccc([N+](=O)[O-])cc3)ccc2S1` [SHetA2], the “Efficacy: percent growth inhibition relative to the untreated control” value [1] was 68%, the Fold (ovarian cancer cells; gene: 3-hydroxyisobutyrate dehydrogenase, mitochondrial precursor, AK025558) was 0.00 Fold and the Fold (ovarian cancer cells; gene: A kinase (PRKA) anchor protein 1, clone MGC:1807, BC000729.1) was 2.00 Fold. For the same compound, the Fold (ovarian cancer cells; gene: A kinase anchor protein S-AKAP84 mRNA, U34074.1) was 2.14 Fold, the Fold (ovarian cancer cells; gene: ADAMTS1, AK023795.1) was 0.43 Fold and the Fold (ovarian cancer cells; gene: ADAMTS5, NM_007038.1) was 0.23 Fold. It also gave a Fold (ovarian cancer cells; gene: ASPLTFE3 type 2 fusion protein, ASPLTFE3 type 1 fusion protein mRNA, AY034077.1) of 0.46 Fold, a Fold (ovarian cancer cells; gene: ATP-binding cassette, sub-family B (MDRTAP), member 6 (ABCB6), NM_005689.1) of 0.46 Fold and a Fold (ovarian cancer cells; gene: ATP-binding cassette, sub-family D (ALD), member 2 (ABCD2), NM_005164.1) of 2.71 Fold. For the same compound, the Fold (ovarian cancer cells; gene: Amyotrophic lateral sclerosis 2 (juvenile) chromosome region, candidate 3 (ALS2CR3), NM_015049.1) was 0.41 Fold, the Fold (ovarian cancer cells; gene: Angiopoietin-like 2 (ANGPTL2), NM_012098.1) was 2.16 Fold and the Fold (ovarian cancer cells; gene: B-cell CLLlymphoma 3 (BCL3), AI829875) was 2.58 Fold. The Fold (ovarian cancer cells; gene: B-cell CLLlymphoma 3 (BCL3), NM_005178.1) was 2.05 Fold, the Fold (ovarian cancer cells; gene: BAGE2 antigen (BAGE2), AF218570.1) was 0.34 Fold and the Fold (ovarian cancer cells; gene: BAM in multiple myeloma, AF455755.1) was 3.05 Fold. It also gave a Fold (ovarian cancer cells; gene: Butyrophilin (BTF3), Cluster Incl. U90548) of 2.15 Fold, a Fold (ovarian cancer cells; gene: Butyrophilin, subfamily 3, member A2 (BTN3A2), AI991252) of 2.31 Fold and a Fold (ovarian cancer cells; gene: Butyrophilin, subfamily 3, member A3 (BTN3A3), NM_006994.2) of 2.04 Fold. The Fold (ovarian cancer cells; gene: Cervical cancer suppressor gene-4 protein (HCCS-4), AF465843.1) was 2.06 Fold, the Fold (ovarian cancer cells; gene: Chromosome 5 open reading frame 4 (C5ORF4), NM_016348.1) was 2.76 Fold and the Fold (ovarian cancer cells; gene: Deleted in lymphocytic leukemia, 2/DEF = Homo sapiens BCMS-upstream neighbor (BCMSUN), AF264787.1) was 0.33 Fold. The Fold (ovarian cancer cells; gene: Deleted in lymphocytic leukemia, BCMS-upstream neighbor (BCMSUN) (DLEU2), AF264787.1) was 0.40 Fold, the Fold (ovarian cancer cells; gene: Dysferlin, limb girdle muscular dystrophy 2B (DYSF), NM_003494.1) was 2.16 Fold and the Fold (ovarian cancer cells; gene: Dystrophin, dystrophin Dp40 isoform (DMD), NM_004019.1) was 2.76 Fold. For the same compound, the Fold (ovarian cancer cells; gene: EHT protein, AF068266.1) was 2.80 Fold, the Fold (ovarian cancer cells; gene: ESTs, Moderately similar to S72399 ras-homolog GTPase rab28 isoform S, AI080106) was 7.75 Fold and the Fold (ovarian cancer cells; gene: ESTs, Weakly similar to DRPL_Human Atrophin-1 (DRPL) in Huntington's disease (HD) and DRPLA, AI358954) was 2.52 Fold. It also gave a Fold (ovarian cancer cells; gene: ESTs, Weakly similar to DRPL_Human Atrophin-1 (DRPL) in dentatorubral-pallidoluysian atrophy, AI358954) of 2.52 Fold, a Fold (ovarian cancer cells; gene: Endothelial cell growth factor 1 (platelet-derived)/Thymidine phosphorylase, NM_001953) of 0.42 Fold and a Fold (ovarian cancer cells; gene: Enhancer of zeste (Drosophila) homolog 2 (EZH2) (USP14), NM_004456.1) of 0.47 Fold. For the same compound, the Fold (ovarian cancer cells; gene: FLJ23538 fis, highly similar to BETA2 Human MEN1 region clone epsilonbeta (BETA2), AI042152) was 0.31 Fold, the Fold (ovarian cancer cells; gene: FYN oncogene related to SRC, FGR and YES (FYN), N20923) was 0.13 Fold and the Fold (ovarian cancer cells; gene: FYN oncogene related to SRC, FGR and YES, c-syn protooncogene, M14333.1) was 0.44 Fold. For the same compound, the Fold (ovarian cancer cells; gene: Facioscapulohumeral muscular dystrophy (FSHD) gene region, D4Z4 tandem repeat unit, D38024) was 2.43 Fold, the Fold (ovarian cancer cells; gene: Familial Mediterranean fever locus region, AF098968.1) was 0.30 Fold and the Fold (ovarian cancer cells; gene: Fibroblast growth factor 2 (basic)(FGF2), NM_002006.1) was 0.35 Fold. The Fold (ovarian cancer cells; gene: Fibroblast growth factor 18 (FGF18), NM_003862.1) was 2.75 Fold, the Fold (ovarian cancer cells; gene: Galactosamine (N-acetyl)-6-sulfate sulfatase, NM_000512) was 0.52 Fold and the Fold (ovarian cancer cells; gene: Glypican-6 (GPC6), AF111178.1) was 2.07 Fold. The Fold (ovarian cancer cells; gene: Hemochromatosis splice variant 495-2314del, AF144243.1) was 3.01 Fold, the Fold (ovarian cancer cells; gene: IMAGE:3050107 mRNA, TBC1 domain family, BC001525) was 0.67 Fold and the Fold (ovarian cancer cells; gene: Keratocan (KERA), NM_007035.2) was 0.50 Fold. The Fold (ovarian cancer cells; gene: Lipoma cell line Li-538SV40 ectopic sequence from HMGI-C fusion mRNA (LI), AI990940) was 0.47 Fold, the Fold (ovarian cancer cells; gene: METH1 protein (METH1), AF060152.1) was 0.39 Fold and the Fold (ovarian cancer cells; gene: Myeloidlymphoid leukemia 2 (MLL2), AF105279.1) was 0.31 Fold. The Fold (ovarian cancer cells; gene: Myeloidlymphoid or mixed-lineage leukemia, translocated to, 4 (HGC6.3), AB016902.2) was 5.07 Fold, the Fold (ovarian cancer cells; gene: N-cym protein, NM_006316) was 2.38 Fold and the Fold (ovarian cancer cells; gene: NICE-5 protein, AW779859) was 0.48 Fold. The Fold (ovarian cancer cells; gene: Nasopharyngeal carcinoma susceptibility protein (LZ16), NM_013275.1) was 0.41 Fold, the Fold (ovarian cancer cells; gene: Nephropontin, M83248.1) was 2.34 Fold and the Fold (ovarian cancer cells; gene: Neuroblastoma, suppression of tumorigenicity 1 (NBL1), NM_005380.1) was 3.07 Fold. It also gave a Fold (ovarian cancer cells; gene: Niban protein (NIBAN), NM_022083.1) of 0.21 Fold, a Fold (ovarian cancer cells; gene: Novel MAFF LIKE protein, Cluster Incl. AL021977) of 0.47 Fold and a Fold (ovarian cancer cells; gene: PNAS-128 in leukemia, AF277186.1) of 0.36 Fold. For the same compound, the Fold (ovarian cancer cells; gene: Peroxisomal biogenesis factor 3 (PEX3), NM_003630.1) was 0.43 Fold, the Fold (ovarian cancer cells; gene: Peroxisomal biogenesis factor 14 (PEX14), NM_004565.1) was 2.06 Fold and the Fold (ovarian cancer cells; gene: Promyelocytic leukemia (PML), NM_002675.1) was 2.76 Fold. It also gave a Fold (ovarian cancer cells; gene: Prostate cancer associated protein 5 (PCANAP5), AI299378) of 0.23 Fold, a Fold (ovarian cancer cells; gene: Prothymosin alpha (PTMA), AF257099) of 2.60 Fold and a Fold (ovarian cancer cells; gene: Putative c-Myc-responsive (RCL), AA523444) of 0.41 Fold. For the same compound, the Fold (ovarian cancer cells; gene: RASSF3 isoform A, putative tumor suppressor, AY062002.1) was 2.88 Fold, the Fold (ovarian cancer cells; gene: RNA binding motif protein 5, putative tumor suppressor (LUCA15), U23946.1) was 0.43 Fold and the Fold (ovarian cancer cells; gene: Regulatory factor X-associated protein (RFXAP), NM_000538.1) was 0.41 Fold. It also gave a Fold (ovarian cancer cells; gene: Retinitis pigmentosa GTPase regulator (RPGR), NM_000328.1) of 0.47 Fold, a Fold (ovarian cancer cells; gene: Rhabdoid tumor deletion region protein 1 (RTDR1), NM_014433.1) of 2.20 Fold and a Fold (ovarian cancer cells; gene: SNRPN upstream reading frame (SNURF), BF114870) of 0.39 Fold. It also gave a Fold (ovarian cancer cells; gene: Sarcoglycan, gamma (35 kD dystrophin-associated glycoprotein), NM_000231.1) of 0.04 Fold, a Fold (ovarian cancer cells; gene: Similar to vitelliform macular dystrophy (Best disease, bestrophin), BC041664.1) of 0.26 Fold and a Fold (ovarian cancer cells; gene: Smcx homolog, X chromosome (mouse), NM_004187) of 0.61 Fold. The Fold (ovarian cancer cells; gene: Sulfite oxidase (SUOX), NM_000456.1) was 2.11 Fold, the Fold (ovarian cancer cells; gene: Thrombospondin 1 (THBS1), BE999967) was 0.42 Fold and the Fold (ovarian cancer cells; gene: Thrombospondin 4, NM_003248) was 0.58 Fold. The Fold (ovarian cancer cells; gene: Thromospondin 4 (THBS4), NM_03248.1) was 2.58 Fold, the Fold (ovarian cancer cells; gene: Transglutaminase 4 (prostate), NM_003241) was 0.24 Fold and the Fold (ovarian cancer cells; gene: Translocase of inner mitochondrial membrane 44 (yeast) homolog (TIM44), NM_006351.1) was 0.50 Fold. The Fold (ovarian cancer cells; gene: Trichorhinophalangeal syndrome I gene (TRPS1), NM_014112.1) was 0.36 Fold, the Fold (ovarian cancer cells; gene: UDP-galactose-4-epimerase, NM_000403) was 0.66 Fold and the Fold (ovarian cancer cells; gene: Unknown protein mRNA within the p53 intron 1, U58658.1) was 0.45 Fold. The Fold (ovarian cancer cells; gene: Vascular endothelial growth factor (VEGF), AF022375.1) was 0.47 Fold, the Fold (ovarian cancer cells; gene: Vitelliform macular dystrophy (Best disease, bestrophin) (VMD2), NM_004183.1) was 0.28 Fold and the Fold (ovarian cancer cells; gene: aarF domain containing kinase 4, BC013114) was 2.30 Fold. The Fold (ovarian cancer cells; gene: v-Myc avian myelocytomatosis viral related oncogene, neuroblastoma derived (MYCN), BC002712.1) was 3.99 Fold, the “expression of TP at the RNA and protein levels” value [2] was “inhibit expression” and the “expression of TSP-4 at the RNA and protein levels” value (Thrombospondin 4 (TSP4)) was “inhibit expression”. For the same compound, the “time to inhibition of NF-κB reporter activity” value (NF-κB) was ≤ 30 min and the “concentrations achieved and maintained in mice” value [3] was “micromolar concentrations”.
